SMILES strings stand for the structures. pEC50, pIC50: −log10 of the molar value. Like-named read-outs stand apart in the source and are kept apart here. Where only a bound is given, the exact number is not on record here.

Test [1] deals with RIPK1 (Homo sapiens (Human), UniProt Q13546). The test can be described thus: In vitro kinase assay (Eurofins Kinase Profiler), IC50. It counts as biochemical. Particulars: 0.001-10 μM, read-out: RIPK 1 (IC50).
Experimental: In vitro kinase assays were conducted using Kinase Profiler services provided by Eurofins. The experimental method was as follows: the small molecule compound to be tested (0.001-10 μM), the protein kinase to be tested were incubated with a buffer containing substrate, 10 mM magnesium acetate, and [γ-^33P-ATP], the reaction was started by adding Mg\TPmix, after incubation for a period of time at room temperature, a 3% phosphate solution was added to the buffer to stop the reaction. Subsequently, 10 μL of the reaction mixture was quantitatively pipetted onto P30 filter paper, which was washed three times with 75 mM phosphate solution and then once with methanol. The P30 filter paper was air-dried and scintillation fluid was added for scintillation counting.
The test system of test [2] is HT-29 cells. Nature of the test: Protection against programmed necrosis of HT-29 cells (TNF α/Smac mimetic/Z-VAD-FMK, CCK8). It counts as cell-based. Particulars: Homo sapiens.
The subject of test [3] is RIPK1 autophosphorylation, phosphorylation of RIPK3 and MLKL. Nature of the test: Regulation of RIPK1 signaling pathway (Western blot). Particulars: TNF α/Smac mimetic/Z-VAD-FMK induced, FIG. 4. The format is cell-based. The source says:
TNF α was purchased from PeproTech Inc., Smac mimetic and Z-VAD-FMK was purchased from Selleck Inc., RIPA lysis buffer was purchased from Beyotime Institute of Biotechnology, cocktail was purchased from MedChemExpress (MCE) Limited, PMSF protease inhibitors, sodium dodecylsulfonate SDS, and glycine were purchased from Sigma Inc., acrylamide, tris(hydroxymethyl)aminomethane Tris, ammonium persulfate APS and N,N,N′,N′-tetramethyl ethylenediamine TEMED were purchased from Wuhan Servicebio Technology Co., Ltd.
Extraction of total cellular protein: after the cells were treated by adding the corresponding concentration of Compounds 94 and 46 or blank vehicle to the cell supernatant and induced with TNF α/Smac mimetic/Z-VAD-FMK combination for a certain period of time, the supernatant was discarded, followed by washing three times with pre-cooled PBS or normal saline, then an appropriate volume of RIPA lysis buffer (containing 1% cocktail and 1% PMSF protease inhibitor) was added, the mixture was immediately placed on ice horizontally for lysis of 15 min, then the cell lysis buffer was scraped with a scraper and transferred to a 1.5 ml EP tube, and the cells were disrupted with a sonicator. The tubes were then centrifuged in a low temperature high speed centrifuge (12000 rpm, 15 min) to remove cell debris. […]
Background: Immunoblotting shows a protein as a band on a membrane.

Test [4] has as its system TNF α-induced SIRS. Nature of the test: TNF α-induced mouse SIRS model. It counts as in vivo. Particulars: 40 mg/kg oral once before TNF α 500 μg/kg i.v. As to the method: TNF α formulated in sterile normal saline was administered at a dose of 500 μg/kg by tail vein injection for modeling. The body temperature of the mice was measured by an infrared electric thermometer. The orally-administrated vehicle was 25% castor oil in ethanol and 75% normal saline. Compounds 94 and 46 and RIPK1 positive compound GSK2982772 were administered orally before modeling with a dose of 40 mg/kg. Body temperature and the survival of mice were recorded every hour and recorded for 24 h and 48 h after 11 h.
This experiment established a TNF α-induced SIRS mouse model to evaluate the in vivo activity of compounds of the present invention. TNF α formulated in sterile normal saline was administered to mice at a dose of 500 μg/kg by tail vein injection for modeling. Since the measurement of rectal temperature would cause mechanical injury to mice and may interfere with the experimental results, an infrared electric thermometer was used to measure the body temperature of mice and the survival condition was observed. Compounds 94 and 46 were administered at a dose of 40 mg/kg once prior to modeling. The Vehicle group was given the corresponding vehicle control.

Sequence of RIPK1 (Q13546 whole entry): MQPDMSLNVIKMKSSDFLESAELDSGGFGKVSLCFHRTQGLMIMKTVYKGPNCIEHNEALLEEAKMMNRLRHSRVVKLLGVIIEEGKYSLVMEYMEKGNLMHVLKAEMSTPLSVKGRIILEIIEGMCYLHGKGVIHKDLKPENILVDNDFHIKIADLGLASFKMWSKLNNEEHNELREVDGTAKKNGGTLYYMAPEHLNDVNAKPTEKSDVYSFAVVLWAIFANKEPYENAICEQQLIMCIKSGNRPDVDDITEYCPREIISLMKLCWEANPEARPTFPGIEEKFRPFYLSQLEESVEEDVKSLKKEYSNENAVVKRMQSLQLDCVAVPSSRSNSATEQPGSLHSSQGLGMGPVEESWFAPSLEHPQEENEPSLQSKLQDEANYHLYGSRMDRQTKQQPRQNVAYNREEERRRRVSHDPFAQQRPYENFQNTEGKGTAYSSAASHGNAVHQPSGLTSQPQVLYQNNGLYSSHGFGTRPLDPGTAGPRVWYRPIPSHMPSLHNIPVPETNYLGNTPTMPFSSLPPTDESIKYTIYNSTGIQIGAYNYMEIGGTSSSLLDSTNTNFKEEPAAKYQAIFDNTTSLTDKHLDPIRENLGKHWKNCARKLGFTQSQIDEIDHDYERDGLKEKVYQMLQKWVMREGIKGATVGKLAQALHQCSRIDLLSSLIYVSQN

The term pIC50 denotes the negative decadic logarithm of the IC50, by convention in mol/L. For orientation: pEC50 means the negative decadic logarithm of the EC50, by convention in mol/L. On to `C[C@H](NC(=O)c1cn(C)c2ccc(-c3ccc4nc(NC(=O)C5CC5)sc4c3)cc12)c1cccc(F)c1` [Compound 46], for which the pIC50 in test [1] was 7.00 to 8.00. The negative logarithm of the EC50 (pEC50) in test [2] (TNF α/Smac mimetic/Z-VAD-FMK induced 24 h, CCK8, read-out: HT-29 (EC50)) is > 9.00; in test [2] (TSZ-induced, FIG. 3, read-out: EC50 value, programmed necrosis model of HT-29), 10.15. In test [3], the “Effect on necrotic signaling pathway (RIPK1 autophosphorylation, RIPK3 and MLKL phosphorylation)” value is “affected the phosphorylation of RIPK3 and MLKL downstream of RIPK1 by inhibiting its autophosphorylation”. The Overall mortality result in test [4] (compared with Vehicle group) is listed as “significantly reduced”. The “Body temperature of mice” value in test [4] (within 11 h) is “relatively normal”.

Source of the values: patent US20230365546A1, “5-SUBSTITUTED INDOLE 3-AMIDE DERIVATIVES, PREPARATION METHOD AND USE THEREOF” (ORIGIANT PHARMACEUTICAL CO., LTD, priority 2020, published 2023).
